Assay results published in PubChem BioAssay AID1845210 (Molecular Pharmacology Branch, DTP, NCI, 2023).
Several values for one entry are separate records, joined by “and”; a condition that tells them apart may be missing. Equal entries are not always repeated.

System: NCI-H226 complex tumor spheroids, viability
Experiment: Anticancer human tumor NCI-H226 cell line growth inhibition;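 also: spheroids exposed to compound for 7 days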;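 as to viability, T/C: 100% = DMSO vehicle control viability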
Details: for viability, T/C: stronger effect = lower value
Procedure, shortened: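 Complex tumor spheroids combined malignant cells with endothelial cells and mesenchymal stem cells. DNA-damaging drugs and DNA repair inhibitors were tested alone and in combination, at half-log dilutions down from clinical Cmax (top 10 microM if Cmax unknown), 0.25% DMSO final.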

[1] = curve of first compound, second compound 1 µM
[2] = curve of first compound, second compound 3.16 µM
[3] = curve of first compound, second compound 10 µM
[4] = curve of first compound, second compound 31.6 µM
[5] = curve of first compound, second compound 100 µM

`[2H]c1nc(C)nc([2H])c1-c1cc(NC[C@@H](C)c2cccc3c(C(=O)NC)ccnc23)ncn1` + Cn1nnc2c(C(N)=O)ncn2c1=O was tested, and the IC50 [1] was over 10000 nM, the IC50 [2] was over 10000 nM and the IC50 [3] was over 10000 nM. For the same compound, the IC50 [4] was over 10000 nM, the IC50 [5] was over 10000 nM and the viability, T/C (second compound 1 µM, first compound 0.0316 µM) was 115%. It also gave a viability, T/C (second compound 1 µM, first compound 0.1 µM) of 107%, a viability, T/C (second compound 1 µM, first compound 0.316 µM) of 118% and a viability, T/C (second compound 1 µM, first compound 1 µM) of 112%. For the same compound, the viability, T/C (second compound 1 µM, first compound 3.16 µM) was 114%, the viability, T/C (second compound 1 µM, first compound 10 µM) was 121% and the viability, T/C (second compound 3.16 µM, first compound 0.0316 µM) was 114%. The viability, T/C (second compound 3.16 µM, first compound 0.1 µM) was 114%, the viability, T/C (second compound 3.16 µM, first compound 0.316 µM) was 113% and the viability, T/C (second compound 3.16 µM, first compound 1 µM) was 101%. The viability, T/C (second compound 3.16 µM, first compound 3.16 µM) was 123%, the viability, T/C (second compound 3.16 µM, first compound 10 µM) was 122% and the viability, T/C (second compound 10 µM, first compound 0.0316 µM) was 112%. For the same compound, the viability, T/C (second compound 10 µM, first compound 0.1 µM) was 122%, the viability, T/C (second compound 10 µM, first compound 0.316 µM) was 115% and the viability, T/C (second compound 10 µM, first compound 1 µM) was 110%. The viability, T/C (second compound 10 µM, first compound 3.16 µM) was 113%, the viability, T/C (second compound 10 µM, first compound 10 µM) was 115% and the viability, T/C (second compound 31.6 µM, first compound 0.0316 µM) was 103%. The viability, T/C (second compound 31.6 µM, first compound 0.1 µM) was 102%, the viability, T/C (second compound 31.6 µM, first compound 0.316 µM) was 119% and the viability, T/C (second compound 31.6 µM, first compound 1 µM) was 120%. The viability, T/C (second compound 31.6 µM, first compound 3.16 µM) was 123%, the viability, T/C (second compound 31.6 µM, first compound 10 µM) was 116% and the viability, T/C (second compound 100 µM, first compound 0.0316 µM) was 141%. For the same compound, the viability, T/C (second compound 100 µM, first compound 0.1 µM) was 129%, the viability, T/C (second compound 100 µM, first compound 0.316 µM) was 112% and the viability, T/C (second compound 100 µM, first compound 1 µM) was 116%. The viability, T/C (second compound 100 µM, first compound 3.16 µM) was 117% and the viability, T/C (second compound 100 µM, first compound 10 µM) was 121%.

`CNCc1ccc(-c2cc(-c3nc(-c4ccc(S(=O)(=O)C(C)C)cc4)cnc3N)on2)cc1` + CC[C@@]1(O)C(=O)OCc2c1cc1n(c2=O)Cc2cc3c(CN(C)C)c(O)ccc3nc2-1 showed an IC50 (curve of first compound, second compound 0.003 µM) of 1710 nM, an IC50 (curve of first compound, second compound 0.00949 µM) of 1560 nM and an IC50 (curve of first compound, second compound 0.03 µM) of 1700 nM. The IC50 (curve of first compound, second compound 0.0949 µM) was 1670 nM, the IC50 (curve of first compound, second compound 0.3 µM) was 1310 nM and the viability, T/C (second compound 0.003 µM, first compound 0.00949 µM) was 111%. It also gave a viability, T/C (second compound 0.003 µM, first compound 0.03 µM) of 116%, a viability, T/C (second compound 0.003 µM, first compound 0.0949 µM) of 125% and a viability, T/C (second compound 0.003 µM, first compound 0.3 µM) of 130%. It also gave a viability, T/C (second compound 0.003 µM, first compound 0.949 µM) of 89.8%, a viability, T/C (second compound 0.003 µM, first compound 3 µM) of 12.1% and a viability, T/C (second compound 0.00949 µM, first compound 0.00949 µM) of 99.1%. For the same compound, the viability, T/C (second compound 0.00949 µM, first compound 0.03 µM) was 112%, the viability, T/C (second compound 0.00949 µM, first compound 0.0949 µM) was 108% and the viability, T/C (second compound 0.00949 µM, first compound 0.3 µM) was 107%. For the same compound, the viability, T/C (second compound 0.00949 µM, first compound 0.949 µM) was 87%, the viability, T/C (second compound 0.00949 µM, first compound 3 µM) was 1.35% and the viability, T/C (second compound 0.03 µM, first compound 0.00949 µM) was 90.5%. The viability, T/C (second compound 0.03 µM, first compound 0.03 µM) was 109%, the viability, T/C (second compound 0.03 µM, first compound 0.0949 µM) was 115% and the viability, T/C (second compound 0.03 µM, first compound 0.3 µM) was 123%. For the same compound, the viability, T/C (second compound 0.03 µM, first compound 0.949 µM) was 97.4%, the viability, T/C (second compound 0.03 µM, first compound 3 µM) was 3.86% and the viability, T/C (second compound 0.0949 µM, first compound 0.00949 µM) was 90.7%. The viability, T/C (second compound 0.0949 µM, first compound 0.03 µM) was 105%, the viability, T/C (second compound 0.0949 µM, first compound 0.0949 µM) was 104% and the viability, T/C (second compound 0.0949 µM, first compound 0.3 µM) was 110%. The viability, T/C (second compound 0.0949 µM, first compound 0.949 µM) was 96.7%, the viability, T/C (second compound 0.0949 µM, first compound 3 µM) was 1.91% and the viability, T/C (second compound 0.3 µM, first compound 0.00949 µM) was 70.1%. For the same compound, the viability, T/C (second compound 0.3 µM, first compound 0.03 µM) was 76.7%, the viability, T/C (second compound 0.3 µM, first compound 0.0949 µM) was 92.8% and the viability, T/C (second compound 0.3 µM, first compound 0.3 µM) was 101%. It also gave a viability, T/C (second compound 0.3 µM, first compound 0.949 µM) of 69.5% and a viability, T/C (second compound 0.3 µM, first compound 3 µM) of 0.93%.

`Cn1ncnc1[C@H]1c2n[nH]c(=O)c3cc(F)cc(c23)N[C@@H]1c1ccc(F)cc1` was tested, and the viability, T/C (compound 0.00949 µM) was 96.2% and 89.2% and 90.4%, the viability, T/C (compound 0.03 µM) was 94.6% and 95.9% and 92.7% and the viability, T/C (compound 0.0949 µM) was 87.4% and 93.6% and 101%. For the same compound, the viability, T/C (compound 0.3 µM) was 89.4% and 101% and 88.2%, the viability, T/C (compound 0.949 µM) was 88.6% and 84.1% and 87% and the viability, T/C (compound 3 µM) was 94.2% and 99.2% and 107%. The IC50 (curve of compound) was over 3000 nM.

`Cc1sc2c(c1C)C(c1ccc(Cl)cc1)=NC(CC(=O)Nc1ccc(O)cc1)c1nnc(C)n1-2` (configuration not stated) + Cn1nnc2c(C(N)=O)ncn2c1=O was tested, and the IC50 [1] was 959 nM, the IC50 [2] was 808 nM and the IC50 [3] was 1000 nM. It also gave an IC50 [4] of 1270 nM, an IC50 [5] of 1570 nM and a viability, T/C (second compound 1 µM, first compound 0.00949 µM) of 83.4%. The viability, T/C (second compound 1 µM, first compound 0.03 µM) was 85%, the viability, T/C (second compound 1 µM, first compound 0.0949 µM) was 74.9% and the viability, T/C (second compound 1 µM, first compound 0.3 µM) was 68.4%. For the same compound, the viability, T/C (second compound 1 µM, first compound 0.949 µM) was 48.8%, the viability, T/C (second compound 1 µM, first compound 3 µM) was 40.3% and the viability, T/C (second compound 3.16 µM, first compound 0.00949 µM) was 79.2%. The viability, T/C (second compound 3.16 µM, first compound 0.03 µM) was 78.7%, the viability, T/C (second compound 3.16 µM, first compound 0.0949 µM) was 81.1% and the viability, T/C (second compound 3.16 µM, first compound 0.3 µM) was 63.2%. The viability, T/C (second compound 3.16 µM, first compound 0.949 µM) was 49.4%, the viability, T/C (second compound 3.16 µM, first compound 3 µM) was 39.6% and the viability, T/C (second compound 10 µM, first compound 0.00949 µM) was 90.6%. For the same compound, the viability, T/C (second compound 10 µM, first compound 0.03 µM) was 78.3%, the viability, T/C (second compound 10 µM, first compound 0.0949 µM) was 76.8% and the viability, T/C (second compound 10 µM, first compound 0.3 µM) was 66.4%. It also gave a viability, T/C (second compound 10 µM, first compound 0.949 µM) of 46.8%, a viability, T/C (second compound 10 µM, first compound 3 µM) of 42.5% and a viability, T/C (second compound 31.6 µM, first compound 0.00949 µM) of 87.1%. It also gave a viability, T/C (second compound 31.6 µM, first compound 0.03 µM) of 80.2%, a viability, T/C (second compound 31.6 µM, first compound 0.0949 µM) of 70.2% and a viability, T/C (second compound 31.6 µM, first compound 0.3 µM) of 71%. It also gave a viability, T/C (second compound 31.6 µM, first compound 0.949 µM) of 52%, a viability, T/C (second compound 31.6 µM, first compound 3 µM) of 38.5% and a viability, T/C (second compound 100 µM, first compound 0.00949 µM) of 92.7%. For the same compound, the viability, T/C (second compound 100 µM, first compound 0.03 µM) was 80.2%, the viability, T/C (second compound 100 µM, first compound 0.0949 µM) was 84.8% and the viability, T/C (second compound 100 µM, first compound 0.3 µM) was 67.8%. For the same compound, the viability, T/C (second compound 100 µM, first compound 0.949 µM) was 55.4% and the viability, T/C (second compound 100 µM, first compound 3 µM) was 42.5%.
